How the values were obtained:
[1] = target: T1, Protein cereblon/Serine/threonine-protein kinase PLK4 (Homo sapiens, UniProt O00444+Q96SW2); test: Protac activity at CRBN/PLK4 in human MCF7 cells at 10 uM incubated for 48 hrs by Western blot analysis; format: cell-based
[2] = target: T1, Protein cereblon/Serine/threonine-protein kinase PLK4; test: Protac activity at CRBN/PLK4 in human MCF7 cells at 1 uM incubated for 48 hrs by Western blot analysis; format: cell-based
[3] = target: T1, Protein cereblon/Serine/threonine-protein kinase PLK4; test: Protac activity at CRBN/PLK4 in human MCF7 cells at 0.1 uM incubated for 48 hrs by Western blot analysis; format: cell-based
[4] = target: T2, Serine/threonine-protein kinase PLK4 (Homo sapiens, UniProt O00444); test: Inhibition of PLK4 (unknown origin) incubated for 1 hr in presence of kinase tracer 236 by FRET assay
T2 sequence (O00444 whole entry): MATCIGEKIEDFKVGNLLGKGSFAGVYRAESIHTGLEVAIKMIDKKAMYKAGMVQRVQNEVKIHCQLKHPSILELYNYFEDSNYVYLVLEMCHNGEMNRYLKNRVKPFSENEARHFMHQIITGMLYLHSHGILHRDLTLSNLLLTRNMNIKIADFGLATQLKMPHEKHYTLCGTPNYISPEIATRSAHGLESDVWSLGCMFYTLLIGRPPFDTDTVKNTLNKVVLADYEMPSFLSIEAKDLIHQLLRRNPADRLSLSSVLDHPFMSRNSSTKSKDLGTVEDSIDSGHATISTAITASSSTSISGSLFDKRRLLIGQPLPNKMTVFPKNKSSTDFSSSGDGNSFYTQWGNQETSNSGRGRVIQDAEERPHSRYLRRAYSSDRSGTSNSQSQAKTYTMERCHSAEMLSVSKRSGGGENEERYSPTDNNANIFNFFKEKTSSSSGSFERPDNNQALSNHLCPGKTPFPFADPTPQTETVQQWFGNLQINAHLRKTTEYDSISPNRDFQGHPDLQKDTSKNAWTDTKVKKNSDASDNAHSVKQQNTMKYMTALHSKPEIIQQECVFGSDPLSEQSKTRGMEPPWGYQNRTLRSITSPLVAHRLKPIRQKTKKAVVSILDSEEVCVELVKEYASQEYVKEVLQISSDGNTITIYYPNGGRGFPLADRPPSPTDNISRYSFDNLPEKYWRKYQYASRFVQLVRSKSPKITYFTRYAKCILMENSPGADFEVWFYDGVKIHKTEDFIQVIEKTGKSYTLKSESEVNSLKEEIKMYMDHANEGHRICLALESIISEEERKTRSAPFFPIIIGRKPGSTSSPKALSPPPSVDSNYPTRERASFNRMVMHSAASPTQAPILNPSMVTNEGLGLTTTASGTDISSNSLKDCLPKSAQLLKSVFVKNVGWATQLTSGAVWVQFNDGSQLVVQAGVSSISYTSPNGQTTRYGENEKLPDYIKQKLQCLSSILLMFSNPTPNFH

MCF7 = test: Antiproliferative activity against human MCF7 cells incubated for 5 days by CCK-8 assay; conditions: MCF7, 120 h
CYP2D6 = test: Inhibition of CYP2D6 in human liver microsomes at 10 uM using quinidine as substrate preincubated for 10 mins followed by NADPH regenerating system addition and measured after 15 mins by LC-MS/MS analysis relative to control; format: ADME, Microsome; conditions: time 25 min
[5] = Stability in human plasma assessed as half life at 100 uM after 120 mins by LC-MS/MS analysis; format: ADME, cell-free

T1 sequence (Q96SW2 whole entry, looked up, one chain of several): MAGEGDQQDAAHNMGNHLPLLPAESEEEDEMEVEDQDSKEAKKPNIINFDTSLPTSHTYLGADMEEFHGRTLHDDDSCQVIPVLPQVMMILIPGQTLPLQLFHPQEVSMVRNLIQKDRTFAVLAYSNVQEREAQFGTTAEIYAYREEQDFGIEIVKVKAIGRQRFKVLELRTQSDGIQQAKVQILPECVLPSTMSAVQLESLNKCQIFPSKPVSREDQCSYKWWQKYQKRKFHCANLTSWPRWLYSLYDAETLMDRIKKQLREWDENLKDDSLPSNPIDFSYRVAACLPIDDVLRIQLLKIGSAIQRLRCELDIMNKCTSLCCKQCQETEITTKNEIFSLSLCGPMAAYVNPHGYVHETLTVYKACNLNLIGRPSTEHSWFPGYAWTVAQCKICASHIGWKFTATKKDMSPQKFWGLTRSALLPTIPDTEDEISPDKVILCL

## Cc1cc(Nc2nc(NCc3ccc(F)cc3F)nc3c2cnn3C2CCN(C(=O)C3CC4(C3)CN(c3ccc5c(c3)C(=O)N(C3CCC(=O)NC3=O)C5=O)C4)CC2)n[nH]1 (stereo not drawn)
[1]
  Activity: 4.01%
[2]
  Activity: 2.39%
[3]
  Activity: 0.28%
[4]
  IC50: 75.2 nM

## Cc1cc(Nc2nc(NCc3ccc(F)cc3F)nc3c2cnn3C2CCN(C(=O)COc3ccc4c(c3)C(=O)N(C3CCC(=O)NC3=O)C4=O)CC2)n[nH]1 (stereo not drawn)
[1]
  Activity: 43.9%
[2]
  Activity: 28.5%
[3]
  Activity: 25.3%
[4]
  IC50: 5.6 nM

## Cc1cc(Nc2nc(NCc3ccc(F)cc3F)nc3c2cnn3C2CCN(C(=O)COCCOc3ccc4c(c3)C(=O)N(C3CCC(=O)NC3=O)C4=O)CC2)n[nH]1 (stereo not drawn)
[1]
  Activity: 28.3%
[2]
  Activity: 5.34%
[3]
  Activity: 2.13%
[4]
  IC50: 1.9 nM

## Cc1cc(Nc2nc(NCc3ccc(F)cc3F)nc3c2cnn3C2CCN(C(=O)CC3CN(c4ccc5c(c4)C(=O)N(C4CCC(=O)NC4=O)C5=O)C3)CC2)n[nH]1 (stereo not drawn)
[2]
  Activity: 70.4%
MCF7
  IC50: 510 nM
[3]
  Activity: 47.7%
[4]
  IC50: 12.9 nM

## Cc1cc(Nc2nc(NCc3ccc(F)cc3F)nc3c2cnn3C2CCN(C(=O)CC3CC4(C3)CN(c3ccc5c(c3)C(=O)N(C3CCC(=O)NC3=O)C5=O)C4)CC2)n[nH]1 (stereo not drawn)
[1]
  Activity: 24.3%
[2]
  Activity: 5.49%
[3]
  Activity: 1.84%
[4]
  IC50: 61.1 nM

## Cc1cc(Nc2nc(NCc3ccc(F)cc3F)nc3c2cnn3C2CCN(C(=O)CCOCCOc3ccc4c(c3)C(=O)N(C3CCC(=O)NC3=O)C4=O)CC2)n[nH]1 (stereo not drawn)
[1]
  Activity: 19.7%
[2]
  Activity: 13.4%
[3]
  Activity: 5.68%
[4]
  IC50: 3.6 nM

## Cc1cc(Nc2nc(NCc3ccc(F)cc3F)nc3c2cnn3C2CCN(C(=O)CCOCCOCCCOc3ccc4c(c3)C(=O)N(C3CCC(=O)NC3=O)C4=O)CC2)n[nH]1 (stereo not drawn)
[1]
  Activity: 52.2%
[2]
  Activity: 46.4%
[3]
  Activity: 29.1%
[4]
  IC50: 37.9 nM

## Cc1cc(Nc2nc(NCc3ccc(F)cc3F)nc3c2cnn3C2CCN(C(=O)CCCCCCCCCOc3ccc4c(c3)C(=O)N(C3CCC(=O)NC3=O)C4=O)CC2)n[nH]1 (stereo not drawn)
[1]
  Activity: 23.6%
[2]
  Activity: 103%
[3]
  Activity: 2.81%
[4]
  IC50: 1080 nM

## Cc1cc(Nc2nc(NCc3ccc(F)cc3F)nc3c2cnn3C2CCN(C(=O)CCCCCOc3ccc4c(c3)C(=O)N(C3CCC(=O)NC3=O)C4=O)CC2)n[nH]1 (stereo not drawn)
[1]
  Activity: 57.7%
[2]
  Activity: 46.7%
[3]
  Activity: 31.3%
[4]
  IC50: 5.5 nM

## C=C[C@H]1C[N@@]2CC[C@H]1C[C@@H]2[C@@H](O)c1ccnc2ccc(OC)cc12 [QUINIDINE]
CYP2D6
  inhibition at 0.25 h, 10 µM: 95.9%

## Cc1cc(Nc2nc(NCc3ccc(F)cc3F)nc3c2cnn3C2CCN(C(=O)CCCCCCCCCCCCCCCCCOc3ccc4c(c3)C(=O)N(C3CCC(=O)NC3=O)C4=O)CC2)n[nH]1 (stereo not drawn)
[1]
  Activity: 58.1%
[2]
  Activity: 46.8%
[3]
  Activity: 20.2%
[4]
  IC50: 19.6 nM

## Cc1cc(Nc2nc(NCc3ccc(F)cc3F)nc3c2cnn3C2CCN(CC3CCN(c4ccc5c(c4)C(=O)N(C4CCC(=O)NC4=O)C5=O)C3)CC2)n[nH]1 (stereo not drawn)
[1]
  Activity: 26.1%
[2]
  Activity: 8.91%
[3]
  Activity: 3.54%
[4]
  IC50: 13.6 nM

## Cc1cc(Nc2nc(NCc3ccc(F)cc3F)nc3c2cnn3C2CCN(CC3CN(c4ccc5c(c4)C(=O)N(C4CCC(=O)NC4=O)C5=O)C3)CC2)n[nH]1 (stereo not drawn)
[1]
  Activity: 42.2%
[2]
  Activity: 31.1%
[3]
  Activity: 2.33%
[4]
  IC50: 10.1 nM

## Cc1cc(Nc2nc(NCc3ccc(F)cc3F)nc3c2cnn3C2CCN(C(=O)CCCCOc3ccc4c(c3)C(=O)N(C3CCC(=O)NC3=O)C4=O)CC2)n[nH]1 (stereo not drawn)
[1]
  Activity: 63.6%
[2]
  Activity: 56.8%
MCF7
  IC50: 260 nM
[3]
  Activity: 44.1%
[4]
  IC50: 2.6 nM

## Cc1cc(Nc2nc(NCc3ccc(F)cc3F)nc3c2cnn3C2CCN(CC3CCN(c4ccc5c(c4)C(=O)N(C4CCC(=O)NC4=O)C5=O)CC3)CC2)n[nH]1 (stereo not drawn)
[1]
  Activity: 19.2%
[2]
  Activity: 8.64%
[3]
  Activity: 2.16%
[4]
  IC50: 3.1 nM

## Cc1cc(Nc2nc(NCc3ccc(F)cc3F)nc3c2cnn3C2CCN(CC3CC4(C3)CN(c3ccc5c(c3)C(=O)N(C3CCC(=O)NC3=O)C5=O)C4)CC2)n[nH]1 (stereo not drawn)
[2]
  Activity: 6.07%
[3]
  Activity: 4.12%
[4]
  IC50: 42.3 nM

## Cc1cc(Nc2nc(NCc3ccc(F)cc3F)nc3c2cnn3C2CCN(C(=O)COCCOCCOc3ccc4c(c3)C(=O)N(C3CCC(=O)NC3=O)C4=O)CC2)n[nH]1 (stereo not drawn)
[1]
  Activity: 38.5%
[2]
  Activity: 30.3%
[3]
  Activity: 24.6%
[4]
  IC50: 9.4 nM

## Cc1cc(Nc2nc(NCc3ccc(F)cc3F)nc3c2cnn3C2CCN(C(=O)CCCCCCCCCCCCCCCOc3ccc4c(c3)C(=O)N(C3CCC(=O)NC3=O)C4=O)CC2)n[nH]1 (stereo not drawn)
[1]
  Activity: 43.5%
[2]
  Activity: 37.8%
[3]
  Activity: 24.1%
[4]
  IC50: 121 nM

## Cc1cc(Nc2nc(NCc3ccc(F)cc3F)nc3c2cnn3C2CCN(C(=O)CC3CCN(c4ccc5c(c4)C(=O)N(C4CCC(=O)NC4=O)C5=O)C3)CC2)n[nH]1 (stereo not drawn)
[2]
  Activity: 48.9%
[3]
  Activity: 39.2%
[4]
  IC50: 8.1 nM

## CC(C)[N+](C)(CCOC(=O)C1c2ccccc2Oc2ccccc21)C(C)C.[Br-] [PROPANTHELINE BROMIDE]
[5]
  half-life at 100 µM: 19.8 min

## Cc1cc(Nc2nc(NCc3ccc(F)cc3F)nc3c2cnn3C2CCN(C(=O)Cc3ccc(N4CCN(c5ccc6c(c5)C(=O)N(C5CCC(=O)NC5=O)C6=O)CC4)cc3)CC2)n[nH]1 (stereo not drawn)
[2]
  Activity: 57.6%
MCF7
  IC50: 6980 nM
[3]
  Activity: 40.1%
[4]
  IC50: 216 nM

## Cc1cc(Nc2nc(NCc3ccc(F)cc3F)nc3c2cnn3C2CCN(C(=O)CCCCCCOc3ccc4c(c3)C(=O)N(C3CCC(=O)NC3=O)C4=O)CC2)n[nH]1 (stereo not drawn)
[1]
  Activity: 68.9%
[2]
  Activity: 55.3%
MCF7
  IC50: 220 nM
[3]
  Activity: 31.7%
[4]
  IC50: 9.1 nM

## Cc1cc(Nc2nc(NCc3ccc(F)cc3F)nc3c2cnn3C2CCN(C(=O)C3CN(c4ccc5c(c4)C(=O)N(C4CCC(=O)NC4=O)C5=O)C3)CC2)n[nH]1 (stereo not drawn)
[1]
  Activity: 73.5%
[2]
  Activity: 52.2%
MCF7
  IC50: 250 nM
[3]
  Activity: 46.3%
[4]
  IC50: 18.9 nM

## Cc1cc(Nc2nc(NCc3ccc(F)cc3F)nc3c2cnn3C2CCN(C(=O)C3CCN(c4ccc5c(c4)C(=O)N(C4CCC(=O)NC4=O)C5=O)C3)CC2)n[nH]1 (stereo not drawn)
[1]
  Activity: 66.8%
[2]
  Activity: 56.1%
MCF7
  IC50: 260 nM
[3]
  Activity: 36.7%
[4]
  IC50: 5.5 nM

## Cc1cc(Nc2nc(NCc3ccc(F)cc3F)nc3c2cnn3C2CCN(C(=O)CCCCCCCCCCCOc3ccc4c(c3)C(=O)N(C3CCC(=O)NC3=O)C4=O)CC2)n[nH]1 (stereo not drawn)
[1]
  Activity: 21.7%
[2]
  Activity: 13.2%
[3]
  Activity: 4.29%
[4]
  IC50: 531 nM

## Cc1cc(Nc2nc(NCc3ccc(F)cc3F)nc3c2cnn3C2CCN(C(=O)CCCCCCCOc3ccc4c(c3)C(=O)N(C3CCC(=O)NC3=O)C4=O)CC2)n[nH]1 (stereo not drawn)
[1]
  Activity: 50.3%
[2]
  Activity: 38.9%
[3]
  Activity: 30.2%
[4]
  IC50: 42.2 nM

## Cc1cc(Nc2nc(NCc3ccc(F)cc3F)nc3c2cnn3C2CCN(C(=O)CC3CCN(c4ccc5c(c4)C(=O)N(C4CCC(=O)NC4=O)C5=O)CC3)CC2)n[nH]1 (stereo not drawn)
[2]
  Activity: 51%
MCF7
  IC50: 2460 nM
[3]
  Activity: 46.2%
[4]
  IC50: 19.1 nM

## Cc1cc(Nc2nc(NCc3ccc(F)cc3F)nc3c2cnn3C2CCN(C(=O)c3ccc(C4CCN(c5ccc6c(c5)C(=O)N(C5CCC(=O)NC5=O)C6=O)CC4)cc3)CC2)n[nH]1 (stereo not drawn)
[1]
  Activity: 69.9%
[2]
  Activity: 61.4%
MCF7
  IC50: 2500 nM
[3]
  Activity: 50.5%
[4]
  IC50: 82.7 nM

## Cc1cc(Nc2nc(NCc3ccc(F)cc3F)nc3c2cnn3C2CCN(Cc3ccc(C4CCN(c5ccc6c(c5)C(=O)N(C5CCC(=O)NC5=O)C6=O)CC4)cc3)CC2)n[nH]1 (stereo not drawn)
[1]
  Activity: 7.32%
[2]
  Activity: 3.11%
[3]
  Activity: 1.05%
[4]
  IC50: 106 nM

## Cc1cc(Nc2nc(NCc3ccc(F)cc3F)nc3c2cnn3C2CCNCC2)n[nH]1
MCF7
  IC50: 650 nM

## Cc1cc(Nc2nc(NCc3ccc(F)cc3F)nc3c2cnn3C2CCN(C(=O)CCCCCCCCCCCCCOc3ccc4c(c3)C(=O)N(C3CCC(=O)NC3=O)C4=O)CC2)n[nH]1 (stereo not drawn)
[1]
  Activity: 35.9%
[2]
  Activity: 22.8%
[3]
  Activity: 11.6%
[4]
  IC50: 154 nM

Source: ChEMBL document CHEMBL5338818, “Discovery of the First Potent, Selective, and In Vivo Efficacious Polo-like Kinase 4 Proteolysis Targeting Chimera Degrader for the Treatment of TRIM37-Amplified Breast Cancer” (J Med Chem, 2023)
